From patent publication US12091425B2 (AMGEN INC., priority 2016, dated 2024)

biological target: T1, Mcl-1/Bim interaction, recombinant human Mcl-1 (171-327) (Homo sapiens, UniProt Q07820); assay: Cell free Mcl-1: Bim Affinity Assay (Mcl-1 HTRF); format: binding; details: TR-FRET, 0.1 nM Mcl-1 (171-327), 0.05 nM biotin-Bim (51-76)
T1 construct: made in house
Procedure: Cell free Mcl-1: Bim Affinity Assay (Mcl-1 HTRF)
The inhibition of the Mcl-1/Bim interaction was measured using a time-resolved fluorescence resonance energy transfer (TR-FRET) assay. […] A biotinylated peptide derived from human Bim (residues 51-76) was purchased from CPC Scientific (San Jose, CA). The TR-FRET assay was conducted in a 384-well white OptiPlatem (PerkinElmer, Waltham, MA) in a total volume of 40 μL. […] The reaction plates were further incubated overnight and then were read on an Envision® multimode reader (PerkinElmer). […] The IC50 values of test compounds were determined from duplicate data by analyzing competition curves using a four-parameter sigmoidal model in GraphPad Prism (GraphPad Software, San Diego, CA) or in Genedata Screener® (Genedata, Basel, Switzerland).

T1 sequence (Q07820 171-327): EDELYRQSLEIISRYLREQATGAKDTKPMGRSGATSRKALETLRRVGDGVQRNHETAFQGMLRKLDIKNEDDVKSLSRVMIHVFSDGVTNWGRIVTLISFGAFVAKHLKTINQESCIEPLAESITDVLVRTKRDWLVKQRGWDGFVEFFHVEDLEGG

| IC50 [nM] | SMILES |
| --- | --- |
| 0.781 | O=C1NS(=O)(=O)[C@H]2CC[C@@H]2CCC[C@H](O)[C@@H]2CC[C@H]2CN2C[C@@]3(CCCc4cc(Cl)ccc43)COc3ccc1cc32 [Example 92, (1S,3′R,6′R,7′S,11′S,14′S)-6-chloro-7′-hydroxy-3,4-dihydro-2H,17′H-spiro[naphthalene-1,24′-[22]oxa[15]thia[1,16]diazapentacyclo[16.7.2.0^3,6.0^11,14.0^21,26]heptacosa[18,20,26]trien]-17′-one 15′,15′-dioxide] |
| 5 | O=C1NS(=O)(=O)CCC[C@H](O)[C@@H]2CC[C@H]2CN2C[C@@]3(CCCc4cc(Cl)ccc43)COc3ccc1cc32 [Example 342, (1S,3′R,6′R,7′S)-6-chloro-7′-hydroxy-3,4-dihydro-2H,13′H-spiro[naphthalene-1,20′-[18]oxa[11]thia[1,12]diazatetracyclo[12.7.2.0^3,6.0^17,22]tricosa[14,16,22]trien]-13′-one 11′,11′-dioxide] |

Further lines, the molecule ahead of its results:

| SMILES | IC50 [nM] |
| --- | --- |
| CC[C@@H]1CC/C=C\[C@H](OCC(=O)NC)[C@@H]2CC[C@H]2CN2C[C@@]3(CCCc4cc(Cl)ccc43)COc3ccc(cc32)C(=O)NS1(=O)=O [Example 964, 2-(((1S,3′R,6′R,7′S,8′Z,12′R)-6-chloro-12′-ethyl-13′,13′-dioxido-15′-oxo-3,4-dihydro-2H-spiro[naphthalene-1,22′-[20]oxa[13]thia[1,14]diazatetracyclo[14.7.2.0^3,6.0^19,24]pentacosa [8,16,18,24]tetraen]-7′-yl)oxy)-N-methylacetamide] | 1.01 |
| O=C1NS(=O)(=O)[C@@H](CO)CC/C=C\C[C@@H]2CC[C@H]2CN2C[C@@]3(CCCc4cc(Cl)ccc43)COc3ccc1cc32 (single isomer, unassigned) [Example 451] | 11.5 |
| COC(=O)C1CCN(C(=O)[C@H]2CC/C=C\[C@H](O)[C@@H]3CC[C@H]3CN3C[C@@]4(CCCc5cc(Cl)ccc54)COc4ccc(cc43)C(=O)NS2(=O)=O)CC1 [Example 143] | 2 |
| O=C1NS(=O)(=O)C/C=C/[C@H](O)[C@@H]2CC[C@H]2CN2C[C@@]3(CCCc4cc(Cl)ccc43)COc3ccc1cc32 [Example 341, (1S,3′R,6′R,7′S,8′E)-6-chloro-7′-hydroxy-3,4-dihydro-2H,13′H-spiro[naphthalene-1,20′-[18]oxa[11]thia[1,12]diazatetracyclo[12.7.2.0^3,6.0^17,22]tricosa[8,14,16,22]tetraen]-13′-one 11′,11′-dioxide] | 7.07 |

same assay, conditions: cell free Mcl-1:Bim TR-FRET, recombinant human Mcl-1 (171-327)

| IC50 [nM] | SMILES |
| --- | --- |
| 3.54 | O=C1NS(=O)(=O)CCOCCCC2CCC2CN2C[C@@]3(CCCc4cc(Cl)ccc43)COc3ccc1cc32 (stereo in doubt) [Example 827, (3S,6R,22S)-6′-chloro-3′,4′-dihydro-2′H,15H-spiro[10,20-dioxa-13-thia-1,14-diazatetracyclo[14.7.2.0^3,6.0^19,24]pentacosa-16,18,24-triene-22,1′-naphthalen]-15-one 13,13-dioxide] |
| 6.81 | O=C1NS(=O)(=O)CCCC[C@H](O)C[C@@H]2CC[C@H]2CN2C[C@@]3(CCCc4cc(Cl)ccc43)COc3ccc1cc32 (single isomer, unassigned) [Example 867, (1S,3′R,6′S,8′S)-6-chloro-8′-hydroxy-3,4-dihydro-2H,15′H-spiro[naphthalene-1,22′-[20]oxa[13]thia[1,14]diazatetracyclo[14.7.2.0^3,6.0^19,24]pentacosa[16,18,24]trien]-15′-one 13′,13′-dioxide or (1S,3′R,6′S,8′R)-6-chloro-8′-hydroxy-3,4-dihydro-2H,15′H-spiro[naphthalene-1,22′-[20]oxa[13]thia[1,14]diazatetracyclo[14.7.2.0^3,6.0^19,24]pentacosa[16,18,24]trien]-15′-one 13′,13′-dioxide] |
| 8.26 | O=C1NS(=O)(=O)CCCCCC(=O)[C@@H]2CC[C@H]2CN2C[C@@]3(CCCc4cc(Cl)ccc43)COc3ccc1cc32 [Example 832, (1S,3′R,6′R)-6-chloro-3,4-dihydro-2H,7′H,15′H-spiro[naphthalene-1,22′-[20]oxa[13]thia[1,14]diazatetracyclo[14.7.2.0^3,6.0^19,24]pentacosa [16,18,24]triene]-7′,15′-dione 13′,13′-dioxide] |
| 11.1 | O=C1NS(=O)(=O)CC/C=C/C[C@@H](O)[C@@H]2CC[C@H]2CN2C[C@@]3(CCCc4cc(Cl)ccc43)COc3ccc1cc32 (single isomer, unassigned) [Example 844] |
| 6.33 | O=C1NS(=O)(=O)CC/C=C/CC[C@@H]2CC[C@H]2CN2C[C@@]3(CCCc4cc(Cl)ccc43)COc3ccc1cc32 [Example 496, (1S,3′R,6′R,9′E)-6-chloro-3,4-dihydro-2H,15′H-spiro[naphthalene-1,22′-[20]oxa[13]thia[1,14]diazatetracyclo[14.7.2.0^3,6.0^19,24]pentacosa [10,16,18,24]tetraen]-15′-one 13′,13′-dioxide] |
| 27.8 | O=C1NS(=O)(=O)CCCC/C=C/[C@@H]2CC[C@H]2CN2C[C@@]3(CCCc4cc(Cl)ccc43)COc3ccc1cc32 [Example 858, (1S,3′R,6′S, 7′E)-6-chloro-3,4-dihydro-2H,15′H-spiro[naphthalene-1,22′-[20]oxa[13]thia[1,14]diazatetracyclo[14.7.2.0^3,6.0^19,24]pentacosa [7,16,18,24]tetraen]-15′-one 13′,13′-dioxide] |

The remaining lines, values behind:

| SMILES | IC50 [nM] |
| --- | --- |
| COC[C@@]1(C)C/C=C/[C@H](O)[C@@H]2CC[C@H]2CN2C[C@@]3(CCCc4cc(Cl)ccc43)COc3ccc(cc32)C(=O)NS1(=O)=O (single isomer, unassigned) [Example 774] | 1.72 |
| CC(=O)N(C)[C@H]1CCCCCS(=O)(=O)NC(=O)c2ccc3c(c2)N(C[C@@H]2CC[C@H]21)C[C@@]1(CCCc2cc(Cl)ccc21)CO3 (single isomer, unassigned) [Example 940] | 18.6 |
| O=C1NS(=O)(=O)C[C@@H]2C[C@@H]2CC[C@H](O)[C@@H]2CC[C@H]2CN2C[C@@]3(CCCc4cc(Cl)ccc43)COc3ccc1cc32.O=C1NS(=O)(=O)C[C@H]2C[C@H]2CC[C@H](O)[C@@H]2CC[C@H]2CN2C[C@@]3(CCCc4cc(Cl)ccc43)COc3ccc1cc32 (mixture of isomers) [Example 787] | 21.4 |
| CC(=O)N[C@@H]1CCCCCS(=O)(=O)NC(=O)c2ccc3c(c2)N(C[C@@H]2CC[C@H]21)C[C@@]1(CCCc2cc(Cl)ccc21)CO3 (single isomer, unassigned) [Example 935, N-((1S,3′R,6′R,7′R)-6-chloro-13′,13′-dioxido-15′-oxo-3,4-dihydro-2H-spiro[naphthalene-1,22′-[20]oxa[13]thia[1,14]diazatetracyclo[14.7.2.0^3,6.0^19,24]pentacosa [16,18,24]trien]-7′-yl)acetamide or N-((1S,3′R,6′R,7′S)-6-chloro-13′,13′-dioxido-15′-oxo-3,4-dihydro-2H-spiro[naphthalene-1,22′-[20]oxa[13]thia[1,14]diazatetracyclo[14.7.2.0^3,6.0^19,24]pentacosa [16,18,24]trien]-7′-yl)acetamide] | 2.07 |
| C[C@H]1CCCC(=O)[C@@H]2CC[C@H]2CN2C[C@@]3(CCCc4cc(Cl)ccc43)COc3ccc(cc32)C(=O)NS1(=O)=O (single isomer, unassigned) [Example 760] | 15.8 |
| COC1C=CCC(OC)C(C)S(=O)(=O)NC(=O)c2ccc3c(c2)N(CC2CCC21)CC1(CCCc2cc(Cl)ccc21)CO3 (single isomer, unassigned) [Example 717] | 28.6 |
